#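 How tested: cells in 96-well plates exposed to compound for 48 hours at five concentrations. GI50: concentration for 50% inhibition of growth.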 The source made the active and inactive calls. Cut-off read from the data, not from the text of the source: active = GI50 up to about 1.1 µM and inactive = higher.
# What was measured:
# Assay in all cases: DTP human tumour cell line panel, 48 h
# 786-0 = test system: 786-0
# A549 = test system: A549
# COLO 205 = test system: COLO 205
# HOP-62 = test system: HOP-62
# HOP-92 = test system: HOP-92
# HT-29 = test system: HT-29
# Hs-578T = test system: Hs-578T
# LOX IMVI = test system: LOX IMVI
# M14 = test system: M14
# NCI-H460 = test system: NCI-H460
# NCI-H522 = test system: NCI-H522
# OVCAR-4 = test system: OVCAR-4
# PC-3 = test system: PC-3
# RPMI-8226 = test system: RPMI-8226
# SF-295 = test system: SF-295
# SF-539 = test system: SF-539
# SK-MEL-5 = test system: SK-MEL-5
# SK-OV-3 = test system: SK-OV-3
# SNB-19 = test system: SNB-19
# SR = test system: SR
Structure (SMILES),GI50 (786-0),GI50 (A549),GI50 (COLO 205),GI50 (HOP-62),GI50 (HOP-92),GI50 (HT-29),GI50 (Hs-578T),GI50 (LOX IMVI),GI50 (M14),GI50 (NCI-H460),GI50 (NCI-H522),GI50 (OVCAR-4),GI50 (PC-3),GI50 (RPMI-8226),GI50 (SF-295),GI50 (SF-539),GI50 (SK-MEL-5),GI50 (SK-OV-3),GI50 (SNB-19),GI50 (SR)
COc1ccc(/C=C2\C(=O)NC(=O)c3ccccc32)cc1OC,16.8 µM (inactive),48.2 µM (inactive),50.4 µM (inactive),32.5 µM (inactive),7.96 µM (inactive),54.8 µM (inactive),53.5 µM (inactive),10.5 µM (inactive),57.5 µM (inactive),45.6 µM (inactive),16.2 µM (inactive),34.6 µM (inactive),45.2 µM (inactive),5.47 µM (inactive),52.2 µM (inactive),9.12 µM (inactive),37.7 µM (inactive),36.3 µM (inactive),25.5 µM (inactive),2.42 µM (inactive)
COc1cc(-c2cc(=O)c3cc4c(=O)cc(-c5cc(OC)c(OC)c(OC)c5)oc4cc3o2)cc(OC)c1OC,14.3 µM (inactive),88.9 µM (inactive),> 100 µM (inactive),12.6 µM (inactive),14.6 µM (inactive),> 100 µM (inactive),20.1 µM (inactive),36.1 µM (inactive),60.3 µM (inactive),> 100 µM (inactive),27.4 µM (inactive),> 82.8 µM (inactive),> 100 µM (inactive),> 100 µM (inactive),17.5 µM (inactive),58.3 µM (inactive),> 100 µM (inactive),18.8 µM (inactive),16.4 µM (inactive),> 100 µM (inactive)
Cc1ccc(/N=N/c2c(C)nn(C(=O)CC(=O)Nc3ccc(Cl)cc3)c2C)cc1C,53 µM (inactive),> 100 µM (inactive),90.4 µM (inactive),34 µM (inactive),12.4 µM (inactive),> 100 µM (inactive),7.05 µM (inactive),96.8 µM (inactive),> 100 µM (inactive),> 100 µM (inactive),32.2 µM (inactive),> 100 µM (inactive),> 100 µM (inactive),> 100 µM (inactive),48.3 µM (inactive),26 µM (inactive),> 100 µM (inactive),16.9 µM (inactive),15.5 µM (inactive),18.8 µM (inactive)
C=C1c2nc3ccccc3n2C=C(c2ccc(C)cc2)N1c1ccccc1,3.48 µM (inactive),5.55 µM (inactive),3.04 µM (inactive),6.49 µM (inactive),27.1 µM (inactive),1.61 µM (inactive),4.21 µM (inactive),5.24 µM (inactive),3.12 µM (inactive),2.88 µM (inactive),0.617 µM (active),22.4 µM (inactive),2.75 µM (inactive),2.3 µM (inactive),1.88 µM (inactive),2.44 µM (inactive),2.13 µM (inactive),7.45 µM (inactive),4.04 µM (inactive),0.445 µM (active)
O=[N+]([O-])c1cccc2nc3ccccc3c(NCCO)c12,0.00315 µM (active),0.0034 µM (active),0.00167 µM (active),0.000539 µM (active),0.0016 µM (active),0.000108 µM (active),0.00684 µM (active),0.00418 µM (active),0.000243 µM (active),0.000767 µM (active),0.00248 µM (active),0.000719 µM (active),0.00378 µM (active),0.000682 µM (active),0.00467 µM (active),0.00262 µM (active),0.00286 µM (active),0.00387 µM (active),0.00977 µM (active),2.36e-05 µM (active)
NN/C(=N\S(=O)(=O)c1cc2ccccc2o1)Nc1ccc(Cl)cc1,44 µM (inactive),> 100 µM (inactive),> 100 µM (inactive),48.8 µM (inactive),20.4 µM (inactive),> 100 µM (inactive),39.8 µM (inactive),> 100 µM (inactive),> 100 µM (inactive),> 100 µM (inactive),24.4 µM (inactive),> 100 µM (inactive),> 100 µM (inactive),> 100 µM (inactive),63.5 µM (inactive),> 100 µM (inactive),> 100 µM (inactive),42.8 µM (inactive),60.8 µM (inactive),> 100 µM (inactive)
O=C(CCSC1=NCCCN1)c1ccc(F)cc1,4.02 µM (inactive),20.4 µM (inactive),5.98 µM (inactive),27.8 µM (inactive),20.6 µM (inactive),20.2 µM (inactive),22 µM (inactive),18.9 µM (inactive),15.6 µM (inactive),22 µM (inactive),2.08 µM (inactive),21.6 µM (inactive),14.9 µM (inactive),2.15 µM (inactive),37.8 µM (inactive),15.7 µM (inactive),18.9 µM (inactive),21.3 µM (inactive),22.1 µM (inactive),3.3 µM (inactive)
N#Cc1c(O)c(/N=N/c2ccc(Cl)cc2)c(=O)n2c1[nH]c1ccccc12,48.6 µM (inactive),44.9 µM (inactive),52.2 µM (inactive),17.5 µM (inactive),26.1 µM (inactive),35.8 µM (inactive),52.1 µM (inactive),> 100 µM (inactive),36 µM (inactive),45.6 µM (inactive),33.3 µM (inactive),67 µM (inactive),36.2 µM (inactive),21.5 µM (inactive),36.9 µM (inactive),53.8 µM (inactive),53.7 µM (inactive),94 µM (inactive),47.3 µM (inactive),29.9 µM (inactive)
O=Cc1c2c(cc3c1CC1(C3)Cc3cc4c(c(C=O)c3C1)CCCC4)CCCC2,> 31.6 µM (inactive),21.3 µM (inactive),25.1 µM (inactive),> 31.6 µM (inactive),15.5 µM (inactive),18 µM (inactive),> 31.6 µM (inactive),23.6 µM (inactive),> 31.6 µM (inactive),52.2 µM (inactive),14.3 µM (inactive),> 31.6 µM (inactive),19.9 µM (inactive),16.8 µM (inactive),20.6 µM (inactive),> 31.6 µM (inactive),> 31.6 µM (inactive),> 31.6 µM (inactive),98.9 µM (inactive),10.1 µM (inactive)
COc1ccc(C2=Nc3cc(C)c(C)cc3NC(c3ccccc3)C2)cc1 (stereo not given),> 100 µM (inactive),44.7 µM (inactive),17.7 µM (inactive),> 100 µM (inactive),24.1 µM (inactive),20.1 µM (inactive),> 100 µM (inactive),28.7 µM (inactive),> 100 µM (inactive),46.2 µM (inactive),30.8 µM (inactive),> 100 µM (inactive),> 100 µM (inactive),15.9 µM (inactive),> 100 µM (inactive),> 100 µM (inactive),29.6 µM (inactive),> 100 µM (inactive),> 100 µM (inactive),4.86 µM (inactive)
C[C@]12C=CC(=O)C=C1CC[C@@H]1[C@@H]2CC[C@@]2(C)[C@H]1CC[C@]2(O)C(N)=O,> 100 µM (inactive),> 100 µM (inactive),> 100 µM (inactive),> 100 µM (inactive),> 100 µM (inactive),> 100 µM (inactive),> 100 µM (inactive),> 100 µM (inactive),> 100 µM (inactive),> 100 µM (inactive),> 100 µM (inactive),> 100 µM (inactive),> 100 µM (inactive),> 100 µM (inactive),> 100 µM (inactive),> 100 µM (inactive),> 100 µM (inactive),> 100 µM (inactive),> 100 µM (inactive),> 100 µM (inactive)
CCOc1cc(NC(C)=O)ccc1C(=O)NN1C(=O)C(Cl)C1c1ccccc1 (stereo not given),14.6 µM (inactive),16.5 µM (inactive),14.2 µM (inactive),20.5 µM (inactive),12.9 µM (inactive),16.6 µM (inactive),21.2 µM (inactive),1.37 µM (inactive),12.4 µM (inactive),16 µM (inactive),2.24 µM (inactive),13.5 µM (inactive),14 µM (inactive),9.95 µM (inactive),20.4 µM (inactive),10.9 µM (inactive),10.1 µM (inactive),16.9 µM (inactive),15.1 µM (inactive),4.34 µM (inactive)
O=C(Nc1ccc(Cl)cc1)c1cc(S(=O)(=O)NC2=Nc3ccc(Cl)cc3C(c3ccccc3)N2)c(SSc2cc(Cl)c(C(=O)Nc3ccc(Cl)cc3)cc2S(=O)(=O)NC2=Nc3ccc(Cl)cc3C(c3ccccc3)N2)cc1Cl (stereo not given),> 100 µM (inactive),> 100 µM (inactive),> 100 µM (inactive),> 100 µM (inactive),83.4 µM (inactive),> 100 µM (inactive),> 100 µM (inactive),> 100 µM (inactive),46.1 µM (inactive),> 100 µM (inactive),> 100 µM (inactive),> 100 µM (inactive),> 100 µM (inactive),97.1 µM (inactive),> 100 µM (inactive),> 100 µM (inactive),> 73.3 µM (inactive),> 100 µM (inactive),> 100 µM (inactive),16.5 µM (inactive)

# Source: ChEMBL document CHEMBL1201862, “PubChem BioAssay data set” (2004)
